According to ChEMBL document CHEMBL1159369, “Isolation, structure, and HIV-1 integrase inhibitory activity of Cytosporic acid, a fungal metabolite produced by a Cytospora sp” (J Nat Prod, 2003):
Activity calls are given as the source filed them. The calls are words filed in the database; no cut-off is given here.

Tests used:
[1] = biological target: Human immunodeficiency virus type 1 integrase (Human immunodeficiency virus 1) (UniProt Q7ZJM1); test: Inhibition of HIV1 integrase strand transfer activity at 200 uM
[2] = biological target: Human immunodeficiency virus type 1 integrase (Human immunodeficiency virus 1, UniProt Q7ZJM1); test: Inhibition of HIV1 integrase strand transfer activity
Human immunodeficiency virus type 1 integrase, sequence (Q7ZJM1 whole entry): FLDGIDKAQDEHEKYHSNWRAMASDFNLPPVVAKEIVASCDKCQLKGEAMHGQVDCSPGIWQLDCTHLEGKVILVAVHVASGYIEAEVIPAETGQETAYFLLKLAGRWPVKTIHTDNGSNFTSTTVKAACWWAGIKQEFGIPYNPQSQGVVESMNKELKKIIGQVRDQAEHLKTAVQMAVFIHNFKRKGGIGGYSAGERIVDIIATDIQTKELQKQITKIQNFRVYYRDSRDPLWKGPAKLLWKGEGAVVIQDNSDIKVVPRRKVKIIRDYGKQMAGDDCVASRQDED

Human immunodeficiency virus type 1 integrase (Human immunodeficiency virus 1), sequence (Q7ZJM1 as listed by the source): as the sequence (Q7ZJM1 whole entry) above

SMILES | Activity [1] | IC50 [2] [µM]
CCCCCC[C@@H](C)C1=C(O)C(=O)[C@@H]2[C@H](O)[C@H](C)C[C@H](O)[C@H]2[C@]1(C)C(=O)CCO | inactive | 
CCCCCC[C@@H](C)C1=C(O)C(=O)[C@@H]2[C@H](O)[C@H](C)C[C@H](O)[C@H]2[C@]1(C)C(=O)/C=C\O [AUSTRALIFUNGIN] |  | 20
CCCC[C@@H](C)C1=C(O)C(=O)[C@@H]2C[C@H](C)C[C@H](C(=O)O)[C@H]2[C@]1(C)C(=O)CCO [CYTOSPORIC ACID] |  | 20
